In patent publication US9174992B2, “Heterobicyclic compounds” (Amgen Inc., priority 2012, dated 2015):
Values joined by “and” are separate entries in the source; they are usually repeats but may differ in a detail not shown here. Identical values can stand only once.

Molecular target: PDE10A (UniProt Q9Y233)
Experiment: PDE10 enzyme inhibition, IMAP TR-FRET assay (Example A, MPDE10A7 Enzyme Activity and Inhibition)
Format: biochemical
Details: approximate IC50 value, Table 10
How it was run: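 Compounds were preincubated 60 min at room temperature with PDE10A enzyme or tissue homogenate, then fluorescein-labeled cAMP or cGMP was added for 90 min. After stopping with IMAP binding reagents, TR-FRET was read and IC50s were fitted with a four-parameter logistic equation.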

| IC50 | Structure (SMILES) |
| --- | --- |
| 0.505 nM | COc1nc2cccnc2n1C1CCC(Nc2nc3ccccc3[nH]2)CC1 (centres unmarked) [Example 133, N-(4-(2-methoxy-3H-imidazo[4,5-b]pyridin-3-yl)cyclohexyl)-1H-benzo[d]imidazol-2-amine] |
| 68.8 nM | CC1(C)C(=O)N(C2CCN(c3nc4ccc(C(F)(F)F)cc4s3)CC2)c2nccnc21 [Example 202, 7,7-dimethyl-5-(1-(6-(trifluoromethyl)benzo[d]thiazol-2-yl)piperidin-4-yl)-5H-pyrrolo[2,3-b]pyrazin-6(7H)-one] |
| 0.189 nM | CC1(C)C(=O)N([C@H]2C[C@H](Nc3ccc(Br)cn3)C2)c2nccnc21 [Example 158, 5-(trans-3-((5-bromopyridin-2-yl)amino)cyclobuty1)-7,7-dimethyl-5H-pyrrolo[2,3-b]pyrazin-6(7 H)-one] |
| 0.0655 nM | Cn1c(=O)n([C@H]2C[C@H](Nc3nc4ccccc4s3)C2)c2ncc(F)cc21 [Example 86, 3-(trans-3-(benzo[d]thiazol-2-ylamino)cyclobutyl)-6-fluoro-1-methyl-1H-imidazo[4,5-b]pyridin-2(3H)-one] |
| 51.1 nM | CC1(C)C(=O)N([C@H]2C[C@H](Nc3cccc(Cl)n3)C2)c2ncccc21 [Example 66, 1-(trans-3-((6-chloropyridin-2-yl)amino)cyclobutyl)-3,3-dimethyl-1H-pyrrolo[2,3-b]pyridin-2(3H)-one] |
| 90.5 nM | CC1(C)C(=O)N([C@H]2C[C@H](Nc3ccc(Br)cn3)C2)c2nccnc21 [Example 160, 5-(trans-3-((5-bromopyridin-2-yl)amino)cyclobutyl)-7,7-dimethyl-5H-pyrrolo[2,3-b]pyrazin-6(7H)-one] |
| 4.45 nM | CC1(C)C(=O)N([C@H]2C[C@H](Nc3nc4ccc(F)cc4s3)C2)c2ncncc21 [Example 157, 7-(trans-3-((6-fluorobenzo[d]thiazol-2-yl)amino)cyclobutyl)-5,5-dimethyl-5H-pyrrolo[2,3-d]pyrimidin-6(7H)-one] |
| 487 nM | c1ccc2nc(N[C@H]3C[C@H](n4cnc5c(N6CCOCC6)ncnc54)C3)ncc2c1 [Example 24, N-(trans-3-(6-morpholino-9H-purin-9-yl)cyclobutyl) quinazolin-2-amine] |
| 44.8 nM | CC1(C)C(=O)N([C@H]2C[C@H](Nc3cnccn3)C2)c2ncccc21 [Example 65, 3,3-Dimethyl-1-(trans-3-(pyrazin-2-ylamino)cyclobutyl)-1H-pyrrolo[2,3-b]pyridine-2(3H)-one] |
| 11 nM | c1cnc2c(c1)nc(C1CC1)n2[C@H]1C[C@H](Nc2nc3ncccc3s2)C1 [Example 27, N-(Trans-3-(2-cyclopropyl-3H-imidazo[4,5-b]pyridin-3-yl)cyclobutyl)thiazolo[4,5-b]pyridin-2-amine] |
| 0.14 nM | O=C1N([C@H]2C[C@H](Nc3nc4ccccc4s3)C2)c2ncccc2C12CCOCC2 [Example 37, 1′-(Trans-3-(benzo[d]thiazol-2-ylamino)cyclobutyl)-2,3,5,6-tetrahydrospiro[pyran-4,3′-pyrrolo[2,3-b]pyridin]-2′(1′H)-one] |
| 5.7 nM | Cc1cccnc1N[C@H]1C[C@H](N2C(=O)C(C)(C)c3cccnc32)C1 [Example 53, 1-(Trans-3-((3-methylpyridin-2-yl)amino)cyclobutyl)-3,3-dimethyl-1H-pyrrolo[2,3-b]pyridin-2(3H)-one] |
| 2.71 nM | CC1(C)C(=O)N([C@H]2C[C@H](Nc3nc4c(F)cc(F)cc4s3)C2)c2nccnc21 [Example 170, 5-(trans-3-((4,6-difluorobenzo[d]thiazole-2-yl)amino)cyclobutyl)-7,7-dimethyl-5H-pyrrolo-[2,3-b]pyrazin-6(714)-one] |
| 339 nM | O=c1[nH]c2cccnc2n1[C@H]1C[C@H](Nc2ncc3ccc(F)cc3n2)C1 [Example 109, 3-(trans-3-((7-fluoroquinazolin-2-yl)amino)cyclobutyl)-1H-imidazo[4,5-b]pyridin-2(3H)-one] |
| 180 nM | CC1(C)C(=O)N([C@H]2C[C@H](Nc3ncc(C(F)(F)F)cn3)C2)c2ncccc21 [Example 70, 1-(trans-3-((5-(trifluoromethyl)pyrimidin-2-yl)amino)cyclobutyl)-3,3-dimethyl-1H-pyrrolo[2,3-b]pyridin-2(3H)-one] |
| 7.7 nM | O=c1[nH]c2cccnc2n1[C@H]1C[C@H](Nc2nc3cc(F)ccc3s2)C1 [Example 99, 3-(trans-3-((5-fluorobenzo[d]thiazol-2-yl)amino)cyclobutyl)-1H-imidazo[4,5-b]pyridin-2(3H)-one] |
| 0.315 nM | CC1(C)C(=O)N(C2CCN(c3ccccn3)CC2)c2ncccc21 [Example 120, 3,3-dimethyl-1-(1-(pyridin-2-yl)piperidin-4-yl)-1H-pyrrolo[2,3-b]pyridin-2(3H)-one] |
| 0.626 nM | O=C1N([C@H]2C[C@H](Nc3nc4ccccc4s3)C2)c2ncc(F)cc2C1(F)F [Example 208, 1-(trans-3-(benzo[d]thiazol-2-ylamino)cyclobutyl)-3,3,5-trifluoro-1H-pyrrolo[2,3-b]pyridin-2(3H)-one] |
| 9.08 nM | CSc1ncc2c(n1)N([C@H]1C[C@H](Nc3nc4ccc(F)cc4s3)C1)C(=O)C2(C)C [Example 156, 7-(trans-3-((6-fluorobenzo[d]thiazol-2-yl)amino)cyclobutyl)-5,5-dimethyl-2-(methylthio)-5H-pyrrolo[2,3-d]pyrimidin-6(7H)-one] |

| IC50 | Structure (SMILES) |
| --- | --- |
| 0.0794 nM | O=c1n(C2CC2)c2cc(F)cnc2n1[C@H]1C[C@H](Nc2nc3ccccc3s2)C1 [Example 87, 3-(trans-3-(benzo[d]thiazol-2-ylamino)cyclobutyl)-6-fluoro-1-cyclopropyl-1H-imidazo[4,5-b]pyridin-2(3H)-one] |
| 1.69 nM | COc1nc2cccnc2n1C1CN(c2nc3ccccc3[nH]2)C1 [Example 132, 3-(1-(1H-benzo[d]imidazol-2-yl)azetidin-3-yl)-2-methoxy-3H-imidazo[4,5-b]pyridine] |
| 2.64 nM | CCc1cnc(N[C@H]2C[C@H](N3C(=O)C(C)(C)c4cccnc43)C2)nc1 [Example 47, 1-(trans-3-((5-ethylpyrimidin-2-yl)amino)cyclobutyl)-3,3-dimethyl-1H-pyrrolo[2,3-b]pyridin-2(3H)-one] |
| 23 nM | COc1nc2cccnc2n1C1CN(c2ncc(C)cn2)C1 [Example 128, 2-Methoxy-3-(1-(5-methylpyrimidin-2-yl)azetidin-3-yl)-3H-imidazo[4,5-b]pyridine] |
| 1.7 nM | FC(F)(F)c1nn([C@H]2C[C@H](Nc3nc4ccccc4s3)C2)c2ncccc12 [Example 115, N-(trans-3-(3-(trifluoromethyl)-1H-pyrazolo[3,4-b]pyridin-1-yl)cyclobutyl)benzo[d]thiazol-2-amine] |
| 3.38 nM | CC(=O)N1CCC(Nc2nn([C@H]3C[C@H](Nc4nc5ccccc5s4)C3)c3ncccc23)CC1 [Example 116, 1-(4-((1-(trans-3-(benzo[d]thiazol-2-ylamino)cyclobutyl)-1H-pyrazolo[3,4-b]pyridin-3-yl)amino)piperidin-1-yl)ethanone] |
| 2.83 nM | CC(C)c1cnc(N[C@H]2C[C@H](N3C(=O)C(C)(C)c4cccnc43)C2)nc1 [Example 82, 1-(trans-3-((5-isopropylpyrimidin-2-yl)amino)cyclobutyl)-3,3-dimethyl-1H-pyrrolo[2,3-b]pyridin-2(3H)-one] |
| 0.0125 nM | CC1(C)C(=O)N([C@H]2C[C@H](Nc3nc4ccccc4s3)C2)c2ncccc21 [Example 30, 1-(trans-3-(benzo[d]thiazol-2-ylamino)cyclobutyl)-3,3-dimethyl-1H-pyrrolo[2,3-b]pyridin-2(3H)-one] |
| 0.0911 nM | Cn1c(=O)n([C@H]2C[C@H](Nc3nc4ccccc4s3)C2)c2ncccc21 [Example 88, 3-(trans-3-(benzo[d]thiazol-2-ylamino)cyclobutyl)-1-methyl-1H-imidazo[4,5-b]pyridin-2(3H)-one] |
| 35.6 nM and 59 nM | CC1(C)C(=O)N([C@H]2C[C@H](Nc3nccc(C(F)(F)F)n3)C2)c2ncccc21 [Example 67] |
| 1.54 nM | Cc1ccc(N[C@H]2CC[C@H](N3C(=O)C(C)(C)c4nccnc43)CC2)nc1 [Example 73, 7,7-dimethyl-5-(trans-4-((5-methylpyridin-2-yl)amino)cyclohexyl)-5H-pyrrolo[2,3-b]pyrazin-6(7H)-one] |
| 8.85 nM | CC1(C)C(=O)N(C2CCN(C(=O)c3ccccn3)CC2)c2ncccc21 [Example 119, 3,3-dimethyl-1-(1-picolinoylpiperidin-4-yl)-1H-pyrrolo[2,3-b]pyridin-2(3H)-one] |
| 1.31 nM | Cn1c(=O)n([C@H]2C[C@H](Nc3nc4ccccc4o3)C2)c2ncccc21 [Example 142, 3-(trans-3-(benzo[d]oxazol-2-ylamino)cyclobutyl)-1-methyl-1H-imidazo[4,5-b]pyridin-2(3H)-one] |
| > 10 nM | O=c1[nH]c2cccnc2n1[C@H]1CC[C@H](Nc2ncc3ccc(Cl)cc3n2)CC1 [Example 112, 3-(trans-4-((7-chloroquinazolin-2-yl)amino)cyclohexyl)-1H-imidazo[4,5-b]pyridin-2(3H)-one] |
| 6.15 nM | CC1(C)C(=O)N([C@H]2C[C@H](Nc3ncc(C4CC4)cn3)C2)c2ncccc21 [Example 79, 1-(trans-3-((5-cyclopropylpyrimidin-2-yl)amino)cyclobutyl)-3,3-dimethyl-1H-pyrrolo[2,3-b]pyridin-2(3H)-one] |
| 1.2 nM | Cn1c(N[C@H]2C[C@H](n3c(=O)n(C4CC4)c4nccnc43)C2)nc2ccccc21 [Example 226, 1-cyclopropyl-3-(trans-3-((1-methyl-1H-benzo[d]imidazol-2-yl)amino)cyclobutyl)-1H-imidazo[4,5-b]pyrazin-2(3H)-one] |
| 0.329 nM | CC1(C)C(=O)N([C@H]2C[C@H](Nc3ccc(C4CC4)cn3)C2)c2ncccc21 [Example 41, 1-(Trans-3-((5-cyclopropylpyridin-2yl)amino)cyclobutyl)-3,3-dimethyl-1H-pyrrolo[2,3-b]pyridin-2(3H)-one] |
| 19.8 nM | c1ccc2oc(N[C@H]3C[C@H](n4c(C5CC5)nc5cccnc54)C3)nc2c1 [Example 15, N-(Trans-3-(2-cyclopropyl-3H-imidazo[4,5-b]pyridin-3-yl)cyclobutyl)benzo[d]oxazol-2-amine] |

| Structure (SMILES) | IC50 |
| --- | --- |
| O=c1oc2cccnc2n1[C@H]1C[C@H](Nc2nc3ccccc3s2)C1 [Example 100] | 10.3 nM |
